According to patent publication US20210207086A1, “NE[…], INTERNAL AGENT, CULTURE MEDIUM ADDITIVE, CELL DILUENT ADDITIVE, CULTURE MEDIUM, AND CELL DILUENT” (LAIMU CORPORATION, priority 2018, published 2021):

Tests used:
Assay type in all cases: cell-based, rat
[1] = test system: PC12 cells; test: Bt2cAMP-induced neurite formation-promoting effect in PC12 cells; conditions: 0.5 mM Bt2cAMP; for neurite formation ratio / neurite formation-promoting effect: compound 0.05-5 μM, FIGS. 1 and 2; for neurite formation-promoting effect compared between compounds: comparison with β-sitosterol or campesterol
Procedure: Using rat adrenal medullary pheochromocytoma-derived PC12 cells (obtained from RIKEN BRC) as a neurodifferentiative model, β-sitosterol, stigmasterol and campesterol were evaluated in terms of the Bt2cAMP (dibutyryladenosine 3′,5′-cyclic monophosphate)-induced neurite formation-promoting effect thereof.
First, PC12 cells were floated on an RPMI-1640 medium (from Sigma Aldrich Corporation) containing 10% equine serum (inactivated), 5% bovine fetal serum (inactivated), 100 U/mL of penicillin G and 100 μg/mL of streptomycin, and well suspended therein so as to be single cells. The suspension of PC 12 cells were sowed on a collagen-coated 96-well plate in an amount of […] cells/90 μL/well, and incubated in a 5% CO2 vapor phase at 37° C. for 24 hours. After incubation, a Dulbecco PBS(−) (Dulbecco phosphate buffer physiological saline water not containing Ca and Mg) added with Bt2cAMP at a concentration of 10 mM, RPMI-1640 medium added with β-sitosterol at a different concentration, or RPMI-1640 medium not added with β-sitosterol was added to the culture medium in each well in an amount of 5 μL each, and further incubated for 24 hours. At that time, the final concentration of each reagent added to the medium in each well was 0.5 mM with no exception for Bt2cAMP, and was 0 μM, 0.05 μM, 0.1 μM, 0.5 μM, 1 μM or 5 μM for β-sitosterol. After incubation, the culture medium was removed from each well, and 1% glutaraldehyde-containing phosphate buffer (0.1 M, pH 7.2) was dispensed in each well in an amount of 100 μL/well, and then left as such for 20 minutes to fix the cells. Subsequently, the glutaraldehyde-containing phosphate buffer was removed from each well, then a Giemsa stain fluid was dispensed in an amount of 100 μL/well, and left as such for 2 to 3 minutes for staining. After staining, the Giemsa stain fluid was removed from each well, and the stained sample in each well was washed twice with ultra-pure water, and then dried.
The number of the positive cells relative to the total number of cells (the total number of cells judged to be positive or negative) was calculated as percentage to be a neurite formation ratio. Here, for positive or negative judgement, 300 to 400 cells/well were observed.
PC12 cells were incubated according to the same method as above except that stigmasterol or campesterol, or a comparative compound of cholesterol or progesterone was used in place of β-sitosterol, and the neurite formation ratio in each case was calculated.
Graphs were drawn by plotting the neurite formation ratio relative to the concentration of β-sitosterol, campesterol or cholesterol added to the culture medium of PC 12 cells, and shown in FIG. 1. Graphs were drawn by plotting the neurite formation ratio relative to the concentration of β-sitosterol, stigmasterol or progesterone added to the culture medium of PC 12 cells, and shown in FIG. 2. In FIGS. 1 and 2, the horizontal axis is a logarithmic scale. The neurite formation ratio is shown as SD, and SD is a standard deviation in the three tests carried out in the same manner. “*” indicates p<0.05, and “**” indicates p<0.01. The same shall apply to the expression of the neurite formation ratio in FIG. 3, as measured in the following experiment (b).

[2] = test system: PC12 cells; test: NGF-induced neurite formation-promoting effect in PC12 cells; conditions: 10 ng/mL NGF, β-sitosterol 0.05-5 μM, 48 hours; FIG. 3
Procedure: Here, NGF (nerve growth factor) differing from Bt2cAMP in point of signaling pathways was used as an inducing agent for neurite formation to evaluate the NGF-induced neurite formation-promoting effect of β-sitosterol.
Specifically, PC12 cells were incubated according to the same method as above except that an NGF-added Dulbecco PBS(−) was used in place of the Bt2cAMP-added Dulbecco PBS(−) and the incubation time for the PC12 cells after addition of NGF and β-sitosterol thereto was 48 hours, and the neurite formation ratio was calculated. The final concentration of each reagent added to the culture medium of PC12 cells in each well was 10 ng/mL with no exception for NGF, and was 0 μM, 0.05 μM, 0.1 μM, 0.5 μM, 1 μM or 5 μM for β-sitosterol. A graph was drawn by plotting the neurite formation ratio relative to the concentration of β-sitosterol added to the culture medium of PC 12 cells, and shown in FIG. 3.

[3] = test system: PC12 cells; test: Cell toxicity test (Calcein-AM, number of living PC12 cells); conditions: 0.5 mM Bt2cAMP, β-sitosterol 0.05-5 μM, 24 hours; FIG. 4
Procedure: For confirming that the neurite formation-promoting effect of each compound recognized in the above-mentioned evaluations (a) and (b) is not caused by stress (cell toxicity) given to cells, the number of living PC12 cells incubated in a culture medium added with Bt2cAMP and β-sitosterol was evaluated using Calcein-AM (from Dojindo Molecular Technologies, Inc.). Calcein-AM is a cell membrane-permeable compound, and when taken in living cells, it is hydrolyzed with esterase to release calcein. […] Accordingly, after a group of cells were processed with Calcein-AM so as to make Calcein-AM taken by the living cells, and then the cells were disrupted to measure the fluorescence intensity by calcein, whereby the number of the living cells in the group of cells can be known. […]
The fluorescence intensity of the sample in each well processed as above was measured at an excitation wavelength of 485 nm and a detection wavelength of 527 nm. The data of the measured fluorescence intensity were plotted relative to the concentration of β-sitosterol added to the culture medium of PC12 cells, and the resultant graph is shown in FIG. 4. […] The fluorescence intensity is a relative value based on the actual value of the fluorescence intensity, 100%, measured in the system not added with β-sitosterol, and is shown as ±DS. […]

[4] = test system: PC12 cells; test: NGF-inductive neural differentiation-promoting effect (neurofilament immunofluorescent staining); conditions: 10 ng/mL NGF, 0.5 μM β-sitosterol, 48 hours; FIG. 5
Procedure: A neurofilament was used as a neural differentiation marker. This was stained according to an immunofluorescent staining method for evaluating the neural differentiation promoting effect of β-sitosterol.
PC12 cells were floated in an RPMI-1640 medium containing 10% equine serum (inactivated), 5% bovine fetal serum (inactivated), 100 U/mL of penicillin G and 100 μg/mL of streptomycin and well suspended therein to be single cells of 1.4×10^4 cells/mL. The suspension of PC12 cells was sown in a collagen-coated 8-well chamber slide at 5.0×10^3 cells/360 μL/well, and incubated in a 5% CO2 vapor phase at 37° C. for 24 hours. After incubation, an NGF-added Dulbecco PBS(−) (NGF solution), and a β-sitosterol-added RPMI-1640 medium (β-sitosterol solution) were added to the medium in each well in an amount 20 μL/well each, and further incubated for 48 hours. At that time, the final concentration of each reagent added to the medium in each well was 10 ng/mL for NGF, and was 0.5 μM for β-sitosterol. After incubation, the medium was removed from each well, which was then washed with PBS(−) (phosphate buffer physiological saline water (not containing Ca and Mg)), processed with a 4% formaldehyde solution dispensed in each well for 30 minutes, and thereafter washed three times with PBS(−) for 3 minutes. […]

Row | SMILES | neurite formation ratio / neurite formation-promoting effect ([1]; 24 hours) | neurite formation-promoting effect compared between compounds [1] | other results
1 | CC(=O)[C@H]1CC[C@H]2[C@@H]3CCC4=CC(=O)CC[C@]4(C)[C@H]3CC[C@]12C [Progesterone, progesterone, reference compound] | extremely weak | – | neurite formation ratio ([1]; compound added in an amount of 0.1 μM, 24 hours, FIG. 2): recognized to increase the neurite formation ratio
2 | CC(C)[C@H](C)CC[C@@H](C)[C@H]1CC[C@H]2[C@@H]3CC=C4C[C@@H](O)CC[C@]4(C)[C@H]3CC[C@]12C [campesterol] | significantly increased | – | –
3 | CC(C)CCC[C@@H](C)[C@H]1CC[C@H]2[C@@H]3CC=C4C[C@@H](O)CC[C@]4(C)[C@H]3CC[C@]12C [cholesterol, reference compound] | not recognized to have a neurite formation-promoting effect | – | –
4 | CC[C@H](/C=C/[C@@H](C)C1CCC2C3CC=C4C[C@@H](O)CC[C@]4(C)C3CC[C@@]21C)C(C)C (stereo partly drawn) [stigmasterol] | significantly increased | no difference in the neurite formation-promoting effect | –
5 | CC[C@H](CC[C@@H](C)C1CCC2C3CC=C4C[C@@H](O)CC[C@]4(C)C3CC[C@@]21C)C(C)C (stereo partly drawn) [β-sitosterol] | significantly increased | stronger neurite formation-promoting effect than the system added with campesterol | neurite formation ratio [2]: significantly increased; fluorescence intensity (calcein), relative to system not added with β-sitosterol [3]: changed little; number of living cells [3]: does not decrease; neurofilaments (bright spots in FITC fluorescently-stained image) versus NGF alone [4]: larger number of neurofilaments appeared
